In ChEMBL document CHEMBL1201862, “PubChem BioAssay data set” (2004):
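Where inhibition never reached the appropriate level, the endpoint shown equals the highest concentration tested. Otherwise, values were interpolated linearly from a five-concentration, 48-hour dose response in 96-well plates. At the GI50, growth is halved.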 The source made the active and inactive calls. Rule as the data show it: active = GI50 up to about 1.1 µM and inactive = higher.

Columns and labels:
Assay in all cases: NCI anticancer screen, dose series, 48 h
786-0 = system: 786-0
A549 = system: A549
BT-549 = system: BT-549
CCRF-CEM = system: CCRF-CEM
COLO 205 = system: COLO 205
DU-145 = system: DU-145
EKVX = system: EKVX
HCC 2998 = system: HCC 2998
HCT-116 = system: HCT-116
HCT-15 = system: HCT-15
HL-60 = system: HL-60
HOP-62 = system: HOP-62
HOP-92 = system: HOP-92
HT-29 = system: HT-29
IGROV-1 = system: IGROV-1
K562 = system: K562
KM12 = system: KM12
LOX IMVI = system: LOX IMVI
M14 = system: M14
MCF7 = system: MCF7
MDA-MB-231 = system: MDA-MB-231
MDA-MB-435 = system: MDA-MB-435
MDA-N = system: MDA-N
MOLT-4 = system: MOLT-4
NCI-H23 = system: NCI-H23
NCI-H460 = system: NCI-H460
NCI-H522 = system: NCI-H522
NCI/ADR-RES = system: NCI/ADR-RES
OVCAR-3 = system: OVCAR-3
OVCAR-4 = system: OVCAR-4
OVCAR-5 = system: OVCAR-5
OVCAR-8 = system: OVCAR-8
PC-3 = system: PC-3
SF-268 = system: SF-268
SF-295 = system: SF-295
SF-539 = system: SF-539
SK-MEL-28 = system: SK-MEL-28
SK-MEL-5 = system: SK-MEL-5
SK-OV-3 = system: SK-OV-3
SN12C = system: SN12C
SNB-19 = system: SNB-19
SNB-75 = system: SNB-75
SR = system: SR
SW-620 = system: SW-620
T47D = system: T47D
TK-10 = system: TK-10
U-251 = system: U-251
UACC-257 = system: UACC-257
UACC-62 = system: UACC-62
UO-31 = system: UO-31
A498 = system: A498
CAKI-1 = system: CAKI-1
Hs-578T = system: Hs-578T
Malme-3M = system: Malme-3M
RPMI-8226 = system: RPMI-8226
RXF 393 = system: RXF 393
SK-MEL-2 = system: SK-MEL-2

`COc1cccc(-c2nc(-c3cnccn3)n(C3OC(CO)C(O)C3O)n2)c1` (stereo not drawn) was tested. Which GI50 (786-0) did it give?
Its GI50 is > 100 µM (inactive).

What about the GI50 (A549) of the same compound?
The GI50 was > 100 µM (inactive).

And the GI50 (BT-549)?
The GI50 was > 100 µM (inactive).

What about the GI50 (CCRF-CEM) of the same compound?
The GI50 was > 100 µM (inactive).

What about the GI50 (COLO 205) of the same compound?
The GI50 was > 100 µM (inactive).

What about the GI50 (DU-145) of the same compound?
Its GI50 is > 100 µM (inactive).

And the GI50 (EKVX)?
Its GI50 is > 100 µM (inactive).

And the GI50 (HCC 2998)?
Its GI50 is > 100 µM (inactive).

What about the GI50 (HCT-116) of the same compound?
The GI50 was > 100 µM (inactive).

And the GI50 (HCT-15)?
The GI50 was greater than 100 µM.

And the GI50 (HL-60)?
Its GI50 is > 100 µM (inactive).

What about the GI50 (HOP-62) of the same compound?
The GI50 was > 100 µM (inactive).

And the GI50 (HOP-92)?
The GI50 was > 100 µM (inactive).

And the GI50 (HT-29)?
The GI50 was > 100 µM (inactive).

And the GI50 (IGROV-1)?
The GI50 was > 100 µM (inactive).

And the GI50 (K562)?
Its GI50 is > 100 µM (inactive).

What about the GI50 (KM12) of the same compound?
The GI50 was > 100 µM (inactive).

What about the GI50 (LOX IMVI) of the same compound?
Its GI50 is > 100 µM (inactive).

And the GI50 (M14)?
The GI50 was > 100 µM (inactive).

And the GI50 (MCF7)?
The GI50 was > 100 µM (inactive).

And the GI50 (MDA-MB-231)?
Its GI50 is > 100 µM (inactive).

And the GI50 (MDA-MB-435)?
The GI50 was > 100 µM (inactive).

And the GI50 (MDA-N)?
The GI50 was > 100 µM (inactive).

And the GI50 (MOLT-4)?
Its GI50 is > 100 µM (inactive).

What about the GI50 (NCI-H23) of the same compound?
The GI50 was > 100 µM (inactive).

What about the GI50 (NCI-H460) of the same compound?
Its GI50 is > 100 µM (inactive).

And the GI50 (NCI-H522)?
The GI50 was > 100 µM (inactive).

And the GI50 (NCI/ADR-RES)?
Its GI50 is > 100 µM (inactive).

And the GI50 (OVCAR-3)?
Its GI50 is > 100 µM (inactive).

And the GI50 (OVCAR-4)?
The GI50 was > 100 µM (inactive).

And the GI50 (OVCAR-5)?
The GI50 was > 100 µM (inactive).

What about the GI50 (OVCAR-8) of the same compound?
The GI50 was > 100 µM (inactive).

And the GI50 (PC-3)?
The GI50 was > 100 µM (inactive).

And the GI50 (SF-268)?
The GI50 was > 100 µM (inactive).

What about the GI50 (SF-295) of the same compound?
Its GI50 is > 100 µM (inactive).

What about the GI50 (SF-539) of the same compound?
Its GI50 is > 100 µM (inactive).

What about the GI50 (SK-MEL-28) of the same compound?
Its GI50 is > 100 µM (inactive).

And the GI50 (SK-MEL-5)?
Its GI50 is > 100 µM (inactive).

And the GI50 (SK-OV-3)?
Its GI50 is > 100 µM (inactive).

What about the GI50 (SN12C) of the same compound?
Its GI50 is > 100 µM (inactive).

What about the GI50 (SNB-19) of the same compound?
Its GI50 is > 100 µM (inactive).

And the GI50 (SNB-75)?
Its GI50 is > 100 µM (inactive).

What about the GI50 (SR) of the same compound?
Its GI50 is > 100 µM (inactive).

And the GI50 (SW-620)?
The GI50 was > 100 µM (inactive).

And the GI50 (T47D)?
Its GI50 is > 100 µM (inactive).

And the GI50 (TK-10)?
The GI50 was > 100 µM (inactive).

And the GI50 (U-251)?
Its GI50 is > 100 µM (inactive).

What about the GI50 (UACC-257) of the same compound?
Its GI50 is > 100 µM (inactive).

And the GI50 (UACC-62)?
Its GI50 is > 100 µM (inactive).

And the GI50 (UO-31)?
The GI50 was > 100 µM (inactive).

With `CC(=O)c1c(O)ccc2c1c1c(n2C)C(=O)c2ccccc2C1=O` as the compound, how does the GI50 (786-0) read?
The GI50 was 4.9 µM (inactive).

What about the GI50 (A498) of the same compound?
Its GI50 is 2.84 µM (inactive).

And the GI50 (A549)?
The GI50 was 5.66 µM (inactive).

What about the GI50 (BT-549) of the same compound?
Its GI50 is > 100 µM (inactive).

And the GI50 (CAKI-1)?
The GI50 was 5.24 µM (inactive).

And the GI50 (CCRF-CEM)?
Its GI50 is 3.69 µM (inactive).

What about the GI50 (COLO 205) of the same compound?
Its GI50 is > 100 µM (inactive).

And the GI50 (DU-145)?
Its GI50 is 3.21 µM (inactive).

What about the GI50 (EKVX) of the same compound?
Its GI50 is 3.24 µM (inactive).

What about the GI50 (HCC 2998) of the same compound?
Its GI50 is 0.0114 µM (active).

And the GI50 (HCT-116)?
The GI50 was 3.01 µM (inactive).

What about the GI50 (HCT-15) of the same compound?
Its GI50 is greater than 100 µM.

What about the GI50 (HL-60) of the same compound?
Its GI50 is > 100 µM (inactive).

What about the GI50 (HOP-62) of the same compound?
The GI50 was 6.53 µM (inactive).

And the GI50 (HT-29)?
Its GI50 is > 100 µM (inactive).

And the GI50 (Hs-578T)?
The GI50 was 2.82 µM (inactive).

What about the GI50 (IGROV-1) of the same compound?
Its GI50 is 1.82 µM (inactive).

And the GI50 (K562)?
Its GI50 is > 100 µM (inactive).

What about the GI50 (LOX IMVI) of the same compound?
The GI50 was 3.24 µM (inactive).

What about the GI50 (MCF7) of the same compound?
The GI50 was 1.69 µM (inactive).

And the GI50 (MDA-MB-231)?
Its GI50 is 2.52 µM (inactive).

And the GI50 (MOLT-4)?
Its GI50 is 4.42 µM (inactive).

What about the GI50 (Malme-3M) of the same compound?
The GI50 was 0.0128 µM (active).

What about the GI50 (NCI-H460) of the same compound?
The GI50 was 3.21 µM (inactive).

What about the GI50 (OVCAR-3) of the same compound?
Its GI50 is 1.81 µM (inactive).

What about the GI50 (OVCAR-5) of the same compound?
The GI50 was > 100 µM (inactive).

What about the GI50 (OVCAR-8) of the same compound?
Its GI50 is 5.3 µM (inactive).

And the GI50 (RPMI-8226)?
The GI50 was 1.46 µM (inactive).

What about the GI50 (RXF 393) of the same compound?
The GI50 was 3.84 µM (inactive).

What about the GI50 (SF-268) of the same compound?
Its GI50 is 1.86 µM (inactive).

And the GI50 (SF-295)?
The GI50 was 6.92 µM (inactive).

And the GI50 (SF-539)?
Its GI50 is 3.08 µM (inactive).

What about the GI50 (SK-MEL-28) of the same compound?
Its GI50 is 2.99 µM (inactive).

And the GI50 (SK-MEL-2)?
The GI50 was > 100 µM (inactive).

And the GI50 (SK-MEL-5)?
Its GI50 is 3.29 µM (inactive).

What about the GI50 (SK-OV-3) of the same compound?
The GI50 was 2.84 µM (inactive).

And the GI50 (SNB-19)?
Its GI50 is 7.28 µM (inactive).

What about the GI50 (SNB-75) of the same compound?
Its GI50 is 2.32 µM (inactive).

What about the GI50 (SR) of the same compound?
Its GI50 is 2.25 µM (inactive).

What about the GI50 (T47D) of the same compound?
Its GI50 is 1.45 µM (inactive).

What about the GI50 (TK-10) of the same compound?
The GI50 was 3.47 µM (inactive).

And the GI50 (U-251)?
Its GI50 is 4.63 µM (inactive).

What about the GI50 (UACC-257) of the same compound?
Its GI50 is > 100 µM (inactive).
